Measurements as given in ChEMBL document CHEMBL3885861, “Open TG-GATES”.

Organism: Rattus norvegicus
Experiment: Open TG-GATES - Regimen: Daily Repeat
Type: toxicity, organism-based, Sprague-Dawley
Parameters: regimen Daily Repeat, gender Male, age 6 weeks
Conditions: in vivo, po, 0 mg/kg, route gavage, dose level Control; for APTT / Bas / Eos / Fbg / Hb / Ht / Lym / MCH / MCHC / MCV / Mono / Neu / PT / Plat / RBC / Ret / WBC: tissue Blood; for KIDNEY_L / KIDNEY_R / KIDNEY_TOTAL: tissue Kidney; for LIVER: tissue Liver; for ALP / ALT / AST / BUN / CRE / Ca / DBIL / GLC / IP / K / LDH / Na / PL / RALB / TBIL / TC / TG / TP / gamma-GTP: tissue Plasma

`Oc1ncnc2[nH]ncc12` [ALLOPURINOL] gave a TERMINAL_BW (72 h, time 3 day) of 244.3 g, an APTT (72 h, time 3 day) of 16.6 s and a Bas (72 h, time 3 day) of 0%. It also gave an Eos (72 h, time 3 day) of 0.8%, a Fbg (72 h, time 3 day) of 237 mg/dL and a Hb (72 h, time 3 day) of 13.9 g/dL. It also gave a Ht (72 h, time 3 day) of 41.5%, a Lym (72 h, time 3 day) of 74.6% and an MCH (72 h, time 3 day) of 22.3 pg. It also gave an MCHC (72 h, time 3 day) of 33.3%, an MCV (72 h, time 3 day) of 66.7 fL and a Mono (72 h, time 3 day) of 11.6%. It also gave a Neu (72 h, time 3 day) of 12.8%, a PT (72 h, time 3 day) of 11.9 s and a Plat (72 h, time 3 day) of 93.5 x10_4/uL. For the same compound, the RBC (72 h, time 3 day) was 623.2 x10_4/ul, the Ret (72 h, time 3 day) was 7.7% and the WBC (72 h, time 3 day) was 127.2 x10_2/uL. The KIDNEY_L (72 h, time 3 day) was 1 g, the KIDNEY_R (72 h, time 3 day) was 1 g and the KIDNEY_TOTAL (72 h, time 3 day) was 2.1 g. It also gave an LIVER (72 h, time 3 day) of 12.2 g, an ALP (72 h, time 3 day) of 863.2 IU/L and an ALT (72 h, time 3 day) of 34.2 IU/L. It also gave an AST (72 h, time 3 day) of 58.2 IU/L, a BUN (72 h, time 3 day) of 18.2 mg/dL and a CRE (72 h, time 3 day) of 0.5 mg/dL. It also gave a Ca (72 h, time 3 day) of 11.4 mg/dL, a DBIL (72 h, time 3 day) of 0 mg/dL and a GLC (72 h, time 3 day) of 201.6 mg/dL. For the same compound, the IP (72 h, time 3 day) was 8.1 mg/dL, the K (72 h, time 3 day) was 4.9 meq/L and the LDH (72 h, time 3 day) was 84.6 IU/L. It also gave a Na (72 h, time 3 day) of 137.8 meq/L, a PL (72 h, time 3 day) of 174.6 mg/dL and an RALB (72 h, time 3 day) of 3.9 g/dL. It also gave a TBIL (72 h, time 3 day) of 0.2 mg/dL, a TC (72 h, time 3 day) of 87.8 mg/dL and a TG (72 h, time 3 day) of 130 mg/dL. The TP (72 h, time 3 day) was 6 g/dL, the gamma-GTP (72 h, time 3 day) was 1.2 IU/L and the TERMINAL_BW ([…], time 7 day) was 249.8 g. For the same compound, the TERMINAL_BW ([…], time 14 day) was 318.9 g, the TERMINAL_BW ([…], time 28 day) was 401.4 g and the APTT ([…], time 7 day) was 17.2 s. For the same compound, the Bas ([…], time 7 day) was 0%, the Eos ([…], time 7 day) was 1% and the Fbg ([…], time 7 day) was 242.2 mg/dL. For the same compound, the Hb ([…], time 7 day) was 15 g/dL, the Ht ([…], time 7 day) was 45.2% and the Lym ([…], time 7 day) was 77.8%. It also gave an MCH ([…], time 7 day) of 20.4 pg, an MCHC ([…], time 7 day) of 33.2% and an MCV ([…], time 7 day) of 61.4 fL. It also gave a Mono ([…], time 7 day) of 4.8%, a Neu ([…], time 7 day) of 16.8% and a PT ([…], time 7 day) of 12 s. The Plat ([…], time 7 day) was 118.1 x10_4/uL, the RBC ([…], time 7 day) was 737.4 x10_4/ul and the Ret ([…], time 7 day) was 4.5%. The APTT ([…], time 14 day) was 16.9 s, the Bas ([…], time 14 day) was 0% and the Eos ([…], time 14 day) was 1%. It also gave a Fbg ([…], time 14 day) of 227 mg/dL, a Hb ([…], time 14 day) of 14.5 g/dL and a Ht ([…], time 14 day) of 44%. It also gave a Lym ([…], time 14 day) of 76.4%, an MCH ([…], time 14 day) of 19.9 pg and an MCHC ([…], time 14 day) of 33%. It also gave an MCV ([…], time 14 day) of 60.5 fL, a Mono ([…], time 14 day) of 6% and a Neu ([…], time 14 day) of 16.8%. The PT ([…], time 14 day) was 11.9 s, the Plat ([…], time 14 day) was 97.7 x10_4/uL and the RBC ([…], time 14 day) was 728 x10_4/ul. It also gave a Ret ([…], time 14 day) of 3.7%, an APTT ([…], time 28 day) of 16.3 s and a Bas ([…], time 28 day) of 0%. For the same compound, the Eos ([…], time 28 day) was 1%, the Fbg ([…], time 28 day) was 230.6 mg/dL and the Hb ([…], time 28 day) was 14.8 g/dL. For the same compound, the Ht ([…], time 28 day) was 44.2%, the Lym ([…], time 28 day) was 80.8% and the MCH ([…], time 28 day) was 19.3 pg. It also gave an MCHC ([…], time 28 day) of 33.5%, an MCV ([…], time 28 day) of 57.6 fL and a Mono ([…], time 28 day) of 6.2%. It also gave a Neu ([…], time 28 day) of 11.8%, a PT ([…], time 28 day) of 12.3 s and a Plat ([…], time 28 day) of 109.3 x10_4/uL. It also gave an RBC ([…], time 28 day) of 766.8 x10_4/ul, a Ret ([…], time 28 day) of 3.5% and a WBC ([…], time 28 day) of 163 x10_2/uL. The KIDNEY_L ([…], time 7 day) was 1.1 g, the KIDNEY_R ([…], time 7 day) was 1.1 g and the KIDNEY_TOTAL ([…], time 7 day) was 2.1 g. For the same compound, the KIDNEY_L ([…], time 14 day) was 1.2 g, the KIDNEY_R ([…], time 14 day) was 1.2 g and the KIDNEY_TOTAL ([…], time 14 day) was 2.5 g. For the same compound, the KIDNEY_L ([…], time 28 day) was 1.4 g, the KIDNEY_R ([…], time 28 day) was 1.4 g and the KIDNEY_TOTAL ([…], time 28 day) was 2.8 g. It also gave an LIVER ([…], time 14 day) of 14.3 g, an LIVER ([…], time 28 day) of 16.2 g and an ALP ([…], time 7 day) of 874.8 IU/L. The ALT ([…], time 7 day) was 26 IU/L, the AST ([…], time 7 day) was 56.2 IU/L and the BUN ([…], time 7 day) was 22.4 mg/dL. It also gave a CRE ([…], time 7 day) of 0.5 mg/dL, a DBIL ([…], time 7 day) of 0.06 mg/dL and a GLC ([…], time 7 day) of 203 mg/dL. The IP ([…], time 7 day) was 7.7 mg/dL, the K ([…], time 7 day) was 4.6 meq/L and the LDH ([…], time 7 day) was 86.2 IU/L. For the same compound, the Na ([…], time 7 day) was 136.6 meq/L, the PL ([…], time 7 day) was 135.4 mg/dL and the RALB ([…], time 7 day) was 4 g/dL. For the same compound, the TBIL ([…], time 7 day) was 0.3 mg/dL, the TC ([…], time 7 day) was 68.2 mg/dL and the TG ([…], time 7 day) was 60.4 mg/dL. The TP ([…], time 7 day) was 6.2 g/dL, the gamma-GTP ([…], time 7 day) was 1.2 IU/L and the ALP ([…], time 14 day) was 710.4 IU/L. The ALT ([…], time 14 day) was 32 IU/L, the AST ([…], time 14 day) was 62.8 IU/L and the BUN ([…], time 14 day) was 17.8 mg/dL. The CRE ([…], time 14 day) was 0.6 mg/dL, the Ca ([…], time 14 day) was 10.9 mg/dL and the DBIL ([…], time 14 day) was 0.01 mg/dL. It also gave a GLC ([…], time 14 day) of 206.4 mg/dL, an IP ([…], time 14 day) of 7.9 mg/dL and a K ([…], time 14 day) of 4.3 meq/L. The LDH ([…], time 14 day) was 69.8 IU/L, the Na ([…], time 14 day) was 139.8 meq/L and the PL ([…], time 14 day) was 150 mg/dL. It also gave an RALB ([…], time 14 day) of 3.6 g/dL, a TBIL ([…], time 14 day) of 0.3 mg/dL and a TC ([…], time 14 day) of 70 mg/dL. The TG ([…], time 14 day) was 118 mg/dL, the TP ([…], time 14 day) was 6 g/dL and the gamma-GTP ([…], time 14 day) was 1.6 IU/L. For the same compound, the ALP ([…], time 28 day) was 602.4 IU/L, the ALT ([…], time 28 day) was 31.6 IU/L and the AST ([…], time 28 day) was 61.8 IU/L. For the same compound, the BUN ([…], time 28 day) was 20 mg/dL, the CRE ([…], time 28 day) was 0.4 mg/dL and the DBIL ([…], time 28 day) was 0.018 mg/dL. The GLC ([…], time 28 day) was 186 mg/dL, the IP ([…], time 28 day) was 6.5 mg/dL and the K ([…], time 28 day) was 4.7 meq/L. For the same compound, the LDH ([…], time 28 day) was 81 IU/L, the Na ([…], time 28 day) was 138.8 meq/L and the PL ([…], time 28 day) was 146.2 mg/dL. For the same compound, the RALB ([…], time 28 day) was 3.8 g/dL, the TBIL ([…], time 28 day) was 0.3 mg/dL and the TC ([…], time 28 day) was 67.2 mg/dL. The TG ([…], time 28 day) was 147.4 mg/dL, the TP ([…], time 28 day) was 6.2 g/dL and the gamma-GTP ([…], time 28 day) was 1.4 IU/L.
